Assay [1] addresses MetRS (T. brucei) (Trypanosoma brucei brucei, UniProt Q38C91). Nature of the assay: MetRS (T. brucei) ATP depletion assay using Kinase-Glo. Type of assay: biochemical. (In general: Kinase-Glo measures the ATP left after a reaction by luminescence.)
The test system of assay [2] is T. brucei. Nature of the assay: Growth inhibition assay of T. brucei cell cultures (Alamar Blue, 48 h). Type of assay: cell-based.
The mark [3] stands for this setting: Trypanosoma brucei; read-out: B) T. brucei EC50.

For orientation: IC50 means the concentration at which inhibition is half-maximal. Read a low IC50 as higher potency. As usually defined, the EC50 is the midpoint of the concentration-response curve.

SMILES strings stand for the structures. Where “and” joins values, the source holds several entries; their conditions need not be identical. Equal values may be shown once. Read-outs that look alike come from different tables or passages of the source.

Chain of MetRS (T. brucei) (Q38C91 entry or part of it): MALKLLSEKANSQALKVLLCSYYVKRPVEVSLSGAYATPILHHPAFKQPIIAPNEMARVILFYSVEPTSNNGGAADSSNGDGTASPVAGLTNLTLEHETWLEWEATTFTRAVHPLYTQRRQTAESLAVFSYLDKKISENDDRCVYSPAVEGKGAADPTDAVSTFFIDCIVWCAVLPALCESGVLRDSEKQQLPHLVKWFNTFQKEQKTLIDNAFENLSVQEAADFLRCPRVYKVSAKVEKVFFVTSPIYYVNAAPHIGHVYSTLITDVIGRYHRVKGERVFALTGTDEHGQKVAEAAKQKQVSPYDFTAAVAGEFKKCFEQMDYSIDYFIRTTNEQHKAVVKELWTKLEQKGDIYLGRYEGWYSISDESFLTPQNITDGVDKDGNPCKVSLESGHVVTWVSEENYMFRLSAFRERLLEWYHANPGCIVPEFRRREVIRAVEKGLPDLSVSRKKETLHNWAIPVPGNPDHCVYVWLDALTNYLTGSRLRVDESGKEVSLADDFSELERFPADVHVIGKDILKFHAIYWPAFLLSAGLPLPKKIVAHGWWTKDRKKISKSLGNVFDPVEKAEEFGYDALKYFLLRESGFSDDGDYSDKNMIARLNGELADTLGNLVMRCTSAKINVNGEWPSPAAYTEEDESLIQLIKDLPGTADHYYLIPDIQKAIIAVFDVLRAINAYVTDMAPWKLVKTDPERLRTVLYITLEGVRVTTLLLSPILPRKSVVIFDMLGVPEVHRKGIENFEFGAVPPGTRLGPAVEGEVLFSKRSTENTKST

With `O=C1CN(Cc2cccc(Cl)c2)CCN1Cc1nc2ccccc2[nH]1` [Compound 1736, 1-((1H-benzo[d]imidazol-2-yl)methyl)-4-(3-chlorobenzyl)piperazin-2-one], the IC50 in assay [1] was more than 10 µM. Besides, the EC50 in assay [2] (setting [3]) is more than 20 µM.

Take `Fc1ccc2[nH]c(C3CCCC(NCc4cc(Cl)cc(Cl)c4)C3)nc2c1` (centres unmarked) [Compound 1839, N-(3,5-dichlorobenzyl)-3-(5-fluoro-1H-benzo[d]imidazol-2-yl) cyclohexanamine]: the IC50 in assay [1] is 3.68 µM. Further, the EC50 in assay [2] (setting [3]) is 2.32 µM.

In assay [1], `O=C(Nc1cc(Cl)cc(Cl)c1)N1CCCC(c2nc3cc(Cl)ccc3[nH]2)C1` (centres unmarked) [Compound 1759, 3-(5-chloro-1H-benzo[d]imidazol-2-yl)-N-(3,5-dichlorophenyl) piperidine-1-carboxamide] displayed an IC50 of more than 10 µM. Also, the EC50 in assay [2] (setting [3]) is more than 10 µM.

For `COc1ccc(Oc2cccc(NCCc3nc4ccccc4[nH]3)n2)c(Cl)c1` [Compound 1918, N-[2-(1H-1,3-benzodiazol-2-yl)ethyl]-6-(2-chloro-4-methoxyphenoxy)pyridin-2-amine], the IC50 in assay [1] is 1.11 µM. The EC50 in assay [2] (setting [3]) turned out to be 9.56 µM.

For `Fc1ccc2nc(NCCCNc3ccc(Cl)cc3Cl)[nH]c2n1` [Compound 1956, N1-(2,4-dichlorophenyl)-N3-(5-fluoro-3H-imidazo[4,5-b]pyridin-2-yl)propane-1,3-diamine], inhibition in assay [1] was half-maximal at 0.325 µM (IC50). In addition, in assay [2] (setting [3]), the EC50 turned out to be 1.55 µM.

In the case of `CC(C)[C@@H](Cc1nc2ccc(Cl)cc2[nH]1)NCc1cc(Cl)cc(Cl)c1` [Compound 1828, [(2R)-1-(6-chloro-1H-1,3-benzodiazol-2-yl)-3-methylbutan-2-yl][(3,5-dichlorophenyl)methyl]amine], the IC50 in assay [1] was more than 10 µM. In addition, the EC50 in assay [2] (setting [3]) was found to be 7.41 µM.

With `O=C(Cc1nc2cc(Cl)cc(Cl)c2[nH]1)NCc1nc2ccccc2[nH]1` [Compound 1764, N-((1H-benzo[d]imidazol-2-yl)methyl)-2-(5,7-dichloro-1H-benzo[d]imidazol-2-yl)acetamide], the IC50 in assay [1] is more than 10 µM. The EC50 in assay [2] (setting [3]) was more than 20 µM.

In assay [1], `O=C(NCc1nc2ccc(Cl)nc2[nH]1)Nc1cc(Cl)cc(Cl)c1` [Compound 1890, 1-((5-chloro-1H-imidazo[4,5-b]pyridin-2-yl)methyl)-3-(3,5-dichlorophenyl)urea] came in with an IC50 of 0.078 µM. Moreover, the concentration for a half-maximal effect (EC50) in assay [2] (setting [3]) amounted to 6.22 µM.

The molecule `Clc1cc(Cl)cc(CN2CCCC(Cc3nc4nc(Cl)ccc4[nH]3)C2)c1` (centres unmarked) [Compound 1814, 5-chloro-2-((1-(3,5-dichlorobenzyl)piperidin-3-yl)methyl)-1H-imidazo[4,5-b]pyridine] registered an IC50 in assay [1] of 3.4 µM. In addition, the EC50 in assay [2] (setting [3]) was 7.21 µM.

The molecule `CN(Cc1nc2ccccc2[nH]1)C(=O)OCCc1ccc(Cl)cc1Cl` [Compound 1728, 2-(2,4-dichlorophenyl)ethyl N-(1H-1,3-benzodiazol-2-ylmethyl)-N-methylcarbamate] returned an IC50 in assay [1] of more than 10 µM. The EC50 in assay [2] (setting [3]) was more than 20 µM.

`Fc1ccc2[nH]c(C3CCCN(CCc4cc(Cl)cc(Cl)c4)C3)nc2n1` (centres unmarked) [Compound 1798, 5-fluoro-2-(1-(3,5-dichlorophenethyl)piperidin-3-yl)-1H-imidazo[4,5-b]pyridine]: the IC50 in assay [1] is more than 10 µM. In addition, the EC50 in assay [2] (setting [3]) amounted to 1.23 µM.

Turning to `CC(C)(CNCc1cc(Cl)cc(Cl)c1)CNc1nc2cccnc2[nH]1` [Compound 1641, N1-(3,5-dichlorobenzyl)-N3-(1H-imidazo[4,5-b]pyridin-2-yl)-2,2-dimethylpropane-1,3-diamine], the IC50 in assay [1] is < 0.049 µM and 0.138 µM. The EC50 amounted to 7.65 µM in assay [2] (setting [3]) and 8.35 µM in assay [2] (read-out: B) T. brucei EC50).

In turn, `O=C(Cc1cc(Cl)cc(Cl)c1)N1CCCC(c2nc3ccccc3[nH]2)C1` (centres unmarked) [Compound 1732, 1-(3-(1H-benzo[d]imidazol-2-yl)piperidin-1-yl)-2-(3,5-dichlorophenyl)ethanone] gave an IC50 in assay [1] of 0.288 µM. Moreover, in assay [2] (setting [3]), the EC50 is more than 5 µM.

Consider `Clc1cc(Cl)cc(CN[C@@H]2CCC[C@H](c3nc4nc(Cl)ccc4[nH]3)C2)c1` [Compound 1854, (1R,3S)-3-(5-chloro-1H-imidazo[4,5-b]pyridin-2-yl)-N-(3,5-dichlorobenzyl)cyclohexanamine], for which the IC50 in assay [1] is 0.106 µM. Besides, in assay [2] (setting [3]), the EC50 came to 0.58 µM.

For the molecule `Clc1cc(Cl)cc(CNc2cccc(-c3nc4ccc(Cl)cc4[nH]3)c2)c1` [Compound 1952, 3-(6-chloro-1H-1,3-benzodiazol-2-yl)-N-[(3,5-dichlorophenyl)methyl]aniline], the IC50 in assay [1] is 2.28 µM and 1.74 µM. Besides, the results for the EC50 in assay [2] (setting [3]) and in assay [2] (read-out: B) T. brucei EC50) were 0.187 µM and 0.367 µM, respectively.

Take `Clc1cc(Cl)cc(CO[C@H]2CCCN(c3nc4nc(Cl)c(Br)cc4[nH]3)C2)c1` [Compound 1904, (S)-6-bromo-5-chloro-2-(3-((3,5-dichlorobenzyl)oxy)piperidin-1-yl)-1H-imidazo[4,5-b]pyridine]: the IC50 in assay [1] was more than 10 µM. For the same molecule, the EC50 in assay [2] (setting [3]) was more than 20 µM.

`Clc1cc(Cl)cc(CN[C@H]2CCCN(C3=NCc4ccccc4N3)C2)c1` [Compound 1961] had an IC50 in assay [1] of 0.121 µM. The EC50 in assay [2] (setting [3]) worked out at 3.76 µM.

In turn, `Clc1ccc(CCNCc2nc3nc(Cl)ccc3[nH]2)c(Cl)c1` [Compound 1892, ({5-chloro-3H-imidazo[4,5-b]pyridin-2-yl}methyl)[2-(2,4-dichlorophenyl)ethyl]amine] displayed an IC50 in assay [1] of 0.033 µM. The EC50 in assay [2] (setting [3]) is 1.55 µM.

In assay [1], `O=C(CCOc1ccc(Cl)cc1Cl)NCc1nc2cccnc2[nH]1` [Compound 1704, 3-(2,4-dichlorophenoxy)-N-{3H-imidazo[4,5-b]pyridin-2-ylmethyl}propanamide] displayed an IC50 of 0.28 µM. For the same molecule, the EC50 in assay [2] (setting [3]) came to 8.61 µM.

As to `CCCOc1c(Cl)cc(Cl)cc1CN[C@H]1CCCN(c2nc3nc(Cl)ccc3[nH]2)C1` [Compound 1927, (S)-1-(5-chloro-1H-imidazo[4,5-b]pyridin-2-yl)-N-(3,5-dichloro-2-propoxybenzyl)piperidin-3-amine], it took 0.047 µM to reach half-maximal inhibition in assay [1] (IC50). Also, the EC50 in assay [2] (setting [3]) stood at 0.827 µM.

As for `O=C(Cc1cc(Cl)cc(Cl)c1)NCc1nc2ccc(Cl)cc2[nH]1` [Compound 1851, N-((6-chloro-1H-benzo[d]imidazol-2-yl)methyl)-2-(3,5-dichlorophenyl)acetamide], the IC50 in assay [1] worked out at 0.081 µM. For the same molecule, the EC50 in assay [2] (setting [3]) came to 3.38 µM.

The molecule `Clc1cc(Cl)cc(CN2CCC[C@@H](c3nc4cc(Cl)ccc4[nH]3)C2)c1` [Compound 1838, (R)-5-chloro-2-(1-(3,5-dichlorobenzyl)piperidin-3-yl)-1H-benzo[d]imidazole] came in with an IC50 in assay [1] of more than 10 µM. Further, in assay [2] (setting [3]), the EC50 turned out to be 8.57 µM.

In turn, `O=C(CNc1cc(Cl)cc(Cl)c1)NCc1nc2ccc(Cl)nc2[nH]1` [Compound 1990, N-({5-chloro-3H-imidazo[4,5-b]pyridin-2-yl}methyl)-2-[(3,5-dichlorophenyl)amino]acetamide] had an IC50 in assay [1] of 0.017 µM. In addition, the EC50 in assay [2] (setting [3]) amounted to 2.04 µM.

`O=C(/C=C/Oc1ccc(Cl)cc1Cl)NNc1nc2ccccc2[nH]1` [Compound 1765, (2E)-N′-(1H-1,3-benzodiazol-2-yl)-3-(2,4-dichlorophcnoxy)prop-2-enehydrazide] showed an IC50 in assay [1] of more than 10 µM. Besides, the EC50 in assay [2] (setting [3]) was more than 20 µM.

Take `Clc1cc(Cl)c(Cl)c(CN[C@H]2CCCN(c3nc4nc(Cl)ccc4[nH]3)C2)c1` [Compound 1902, (S)-1-(5-chloro-1H-imidazo[4,5-b]pyridin-2-yl)-N-(2,3,5-trichlorobenzyl)piperidin-3-amine]: in assay [1], the IC50 worked out at 0.018 µM. In assay [2] (setting [3]), the EC50 turned out to be 0.354 µM.

For the molecule `O=C1N[C@@H](Cc2ccc(Cl)cc2Cl)C(O)N1Cc1nc2ccccc2[nH]1` (stereo partly drawn) [Compound 1934, (4S)-1-((1H-benzo[d]imidazol-2-yl)methyl)-4-(2,4-dichlorobenzyl)-5-hydroxyimidazolidin-2-one], the IC50 in assay [1] is 0.118 µM. Also, the EC50 in assay [2] (setting [3]) was determined as 2 µM.

The molecule `O=C(Nc1cccc(-c2nc3ccc(Cl)cc3[nH]2)c1)c1cc(Cl)cc(Cl)c1` [Compound 1953, 3,5-dichloro-N-[3-(6-chloro-1H-1,3-benzodiazol-2-yl)phenyl]benzamide] yielded an IC50 in assay [1] of more than 10 µM. Also, the EC50 in assay [2] (setting [3]) stood at 0.903 µM; in assay [2] (read-out: B) T. brucei EC50) it was 0.812 µM.

As for `Clc1cc(Cl)cc(CNC2CN(c3nc4nc(Cl)ccc4[nH]3)C2)c1` [Compound 1864, 1-{5-chloro-1H-imidazo[4,5-b]pyridin-2-yl}-N-[(3,5-dichlorophenyl)methyl]azetidin-3-amine], in assay [1], inhibition was half-maximal at 2.17 µM (IC50). The EC50 in assay [2] (setting [3]) is more than 20 µM.

Molecule `NC(CC(=O)NCc1cc(Cl)cc(Cl)c1)c1nc2ccc(Cl)nc2[nH]1` (centres unmarked) [Compound 1969, 3-amino-3-(5-chloro-3H-imidazo[4,5-b]pyridin-2-yl)-N-(3,5-dichlorobenzyl)propanamide] gave an IC50 in assay [1] of 0.782 µM. The EC50 in assay [2] (setting [3]) came to 7.96 µM.

Regarding `O=C(Cc1ccc(Cl)cc1Cl)N1CCCC(c2nc3ccccc3[nH]2)C1` (centres unmarked) [Compound 1731, 1-(3-(1H-benzo[d]imidazol-2-yl)piperidin-1-yl)-2-(2,4-dichlorophenyl) ethanone], in assay [1], the IC50 was found to be 5 µM. Also, the EC50 in assay [2] (setting [3]) is more than 20 µM.

Take `O=C(NCc1nc2ccc(F)cc2[nH]1)OCCc1ccc(Cl)cc1Cl` [Compound 1741, (6-Fluoro-1H-benzoimidazol-2-ylmethyl)-carbamic acid 2-(2,4-dichloro-phenyl)-ethyl ester]: half-maximal inhibition in assay [1] (IC50) was put at 0.132 µM. The EC50 in assay [2] (setting [3]) stood at 4.22 µM.

On to `Clc1cc(Cl)cc(CNC2CCCC(c3nc4cc(Cl)ccc4[nH]3)C2)c1` (centres unmarked) [Compound 1840, 3-(5-chloro-1H-benzo[d]imidazol-2-yl)-N-(3,5-dichlorobenzyl) cyclohexanamine], for which the IC50 in assay [1] was 0.58 µM. The EC50 in assay [2] (setting [3]) worked out at 1.95 µM.

In turn, `O=C(Cc1ccc(Cl)cc1Cl)NCc1nc2ccc(Cl)cc2[nH]1` [Compound 1852, N-[(6-chloro-1H-1,3-benzodiazol-2-yl)methyl]-2-(2,4-dichlorophenyl)acetamide] showed a 50% inhibitory concentration (IC50) in assay [1] of 0.075 µM. For the same molecule, in assay [2] (setting [3]), the EC50 was 5.54 µM.

As for `Clc1cc(Cl)cc(CNCc2nc3ccc(Br)cc3[nH]2)c1` [Compound 1853, N-(3,5-dichlorobenzyl)(6-bromo-1H-benzo[d]imidazol-2-yl)methanamine], the IC50 in assay [1] was more than 10 µM. Further, in assay [2] (setting [3]), the EC50 is more than 20 µM.
